Experimental data taken from article PMC6154976, “The potential HLA Class I-restricted epitopes derived from LeIF and TSA of Leishmania donovani evoke anti-leishmania CD8+ T lymphocyte response” (Scientific Reports, 2018).
Entries after “also recorded” stand apart in the source; their conditions may differ.

These sequences were tested on PBMCs from HLA A2 negative VL treated subjects (assay: Intracellular IFN-γ from CD8+ T cells (FACS)). Conditions: six HLA A2 negative subjects, overnight plus 6 h brefeldin-A.
Type: cell-based, human
Procedure: To evaluate the ability of the selected epitopes to trigger the immune cells by CD8+ T cell dependent manner, PBMCs (1 × 10^6/ml) from five HLAA2 positive VL treated subjects were incubated for overnight in the presence or absence of peptide at 37 °C and 5% CO2. Additionally, six HLA A2 negative VL treated subjects were also considered for this study. Stimulation with SLA was run in parallel to all experiments as described previously. After overnight incubation followed by 6 h incubation with brefeldin-A (1 mg/ml), cells were harvested, washed with PBS, and stained with anti-CD3-PerCP (BD Biosciences) and anti-CD8-FITC(BD Biosciences) conjugated antibodies for 30 min at 4 °C. The cells were then washed with stain buffer, fixed and permeabilized Cytofix-Cytoperm buffer (BD Biosciences) for 20 minutes at 4 °C. The intracellular level of IFN-γ was stained with anti-IFN-γ PE-conjugated antibody (BD Biosciences) for 30 minutes and washed with perm wash buffer (BD Biosciences). A logical gate set using was used to measure the co-expression of intracellular CD8+ ve IFN-γ. At least 30 000 cells were acquired for each analysis, and the results are shown in percentage gated value (% gated).
With TLDHLLVLL [P1] the “intracellular CD3+ ve CD8+ ve IFN-γ” value was “triggered the HLA A2-ve host immune cells by producing CD8+ IFN-γ; also recorded: triggered CD3+ ve CD8+ ve IFN-γ level; also recorded: enhanced CD3+ CD8+ IFN-γ”.
For RLLEAFQFV [P7], the “intracellular CD3+ ve CD8+ ve IFN-γ” value was “triggered CD3+ ve CD8+ ve IFN-γ level; also recorded: enhanced CD3+ CD8+ IFN-γ”.
In the case of LLLAEPFPV [P4], the “intracellular CD3+ ve CD8+ ve IFN-γ” value is reported as “triggered the HLA A2-ve host immune cells by producing CD8+ IFN-γ”.
For KVLTLFAEV [P5], the “intracellular CD3+ ve CD8+ ve IFN-γ” value was “triggered the HLA A2-ve host immune cells by producing CD8+ IFN-γ; also recorded: triggered CD3+ ve CD8+ ve IFN-γ level; also recorded: enhanced CD3+ CD8+ IFN-γ”.

The sequences below were run against HLA-A*0201 molecule on T2 cells (Homo sapiens, UniProt P04439, D140Y/D185E/D98H/E176V/E277Q/G131W/G231S/I119V/I121R/I166T/I218V/L300P/L318F/N151K/N90K/P208A/P217A/Q86G/Q94H/R138H/R169H/T345S) (assay: Peptide-binding assay (HLA stabilization assay, T2 cell line)). Conditions: T2 cells 2 × 10^5/well, 20 μg/mL peptide, serum-free RPMI, 20 hours, 37 °C; FACS, PE anti-HLA-A 02 (BB7.2); triplicate; FI more than 1 = strong binding; Fig. S2.
Type: cell-based
Procedure: The efficiency of the shortlisted epitopes to stabilize the HLA-A 02 allele was measured by HLA stabilization assay using TAP-deficient human cell line that express HLA-A2 (T2 cell line) according to our previously described methodology with certain modifications. Briefly, T2 cells (2 × 10^5/well) were cultured with 20 μg/mL of individual peptides in serum-free RPMI medium for 20 hours at 37 °C in 5% CO2. The HLA stabilization assay was performed in triplicate for each peptide. The tumor HLA A2 bound 10mer peptide was used as positive control. The expression of HLA-A 02 on T2 cells was measured by PE-conjugated mouse anti-human HLA-A 02 monoclonal antibody (clone: BB7.2; Pharmingen), the samples were acquired by FACS Calibur and analyzed by CellQuest software (BD Biosciences). The binding affinity of each peptide was measured by a fluorescence index: FI = (mean PE fluorescence with the given peptide−mean PE fluorescence without peptide)/(mean […] fluorescence without peptide). The epitope with a fluorescence index (FI) more than 1 was considered as strong binding affinity epitopes.
For TLDHLLVLL [P1], the “fluorescence index (FI) value” was “above 2”.
With RLLEAFQFV [P7] the “fluorescence index (FI) value” was “above 2”.
With LLLAEPFPV [P4] the “fluorescence index (FI) value” was 1.81.
For KVLTLFAEV [P5], the “fluorescence index (FI) value” was “above 2”.
VLLEKATIL [P2] was tested, and the “fluorescence index (FI) value” was “above 2”.

Same assay, conditions: T2 cells, 20 μg/mL peptide, 20 hours; FI more than 1 = strong binding; Fig. S2
In the case of TLDHLLVLL [P1], the “binding to / stabilization of HLA-A*0201 on T2 cells, in words” value (from here on “binding to / stabilization”) is reported as “stabilized the HLA A2; also recorded: strongly bound”.
SMDSEYAHL [P9] was tested, and the “binding to / stabilization” value was “relatively weakly bound”.
For RLLEAFQFV [P7], the “binding to / stabilization” value was “stabilized the HLA A2; also recorded: strongly bound”.
LLLAEPFPV [P4] was tested, and the “binding to / stabilization” value was “stabilized the HLA A2; also recorded: strongly bound”.
With KVLTLFAEV [P5] the “binding to / stabilization” value was “stabilized the HLA A2; also recorded: strongly bound”.
With VLLEKATIL [P2] the “binding to / stabilization” value was “stabilized the HLA A2; also recorded: strongly bound”.
With SLARRKLLL [P3] the “binding to / stabilization” value was “relatively weakly bound”.
In the case of FIIDPNGMV [P8], the “binding to / stabilization” value is reported as “relatively weakly bound”.
For MLADKTKSI [P6], the “binding to / stabilization” value was “relatively weakly bound”.
